Patent publication US8697081B2, “Method of modulating neovascularization” (The Regents of the University of Michigan, priority 2008, dated 2014)

Experiments:
Format in all cases: cell-based
[1] = tested on: Human umbilical vein endothelial cells; assay: VEGF/HGF-triggered vasculogenesis in 3-D fibrin gel, or growth in 2-D culture; conditions: for growth of VEGF/HGF-stimulated endothelial cells: 2-D culture atop fibrin gels; for elongation, proliferation and neovessel formation: 3-D fibrin gel
From the text: (§1) At sites of tissue damage, inflammation or neoplasia, fibrinogen is converted into a 3-D meshwork of fibrin fibrils that serve as a structural support for endothelial cells undergoing neovascularization (Chun et al. 2006. Cell, 125: 577-591; Hiraoka et al. 1998. Cell, 95: 365-377; Schafer and Werner. 2008. Nat. Rev. Mol. Cell Biol., 9: 628-638; Zhou et al. 2008. Genes Dev., 22: 1231-1243). This process can be recapitulated in vitro by embedding serum-supplemented human endothelial cells within a 3-D fibrin gel in the presence of the pro-angiogenic factors, VEGF and HGF. Human umbilical vein endothelial cells were isolated from umbilical cords by perfusion of the umbilical vein with type 3 collagenase (Worthington, Lakewood, N.J.) and cultured in Medium-199 (Invitrogen, Carlsbad, Calif.) with 20% human serum and 50 μg/ml endothelial cell growth supplement (ECGS; BD Biosciences, Franklin Lakes, N.J.). For 3-D culture, endothelial cells were suspended in a solution of thrombin and aprotinin (Sigma, St. Louis, Mo.) and mixed 1:1 with a solution of 6 mg/ml fibrinogen (Calbiochem, Gibbstown, N.J.). Vasculogenesis was triggered by treatment with 100 ng/ml VEGF, 50 ng/ml HGF (Genentech, San Francisco, Calif.). Fibronectin fibrillogenesis was tracked in 3-D by co-culture with human fibronectin (Sigma) labeled with Alexa-594 (Invitrogen).
In the presence of VEGF and HGF, endothelial cells i) underwent marked changes in cell morphology from spherical to elongated, ii) mobilized proteinases which degrade the surrounding fibrin, iii) assembled a pericellular meshwork of fibronectin fibrils, and iv) initiated proliferative and tubulogenic responses that result in the formation of an anastomosing network of neovessels over a 6 day culture period (Hiraoka, supra; Saunders et al., 2006. J Cell Biol. 175: 179-191; Zhou et al., 2008. Proc. Natl. Acad. Sci. USA, 97: 4052-4057). […] Cell, 125: 757-767; Saunders et al., supra; Tomasini-Johansson et al., 2001. J. Biol. Chem., 276: 23430-23439; Zhou et al, supra). Endothelial cells cultured atop—rather than embedded within—fibrin gels (herein referred to as 2-D culture) display distinct growth requirements from those observed in 3-D culture.
Taken together, cytoskeletal reorganization and contractile tension may serve as the biomechanical effectors that transmit structural and mechanical cues from the pericellular ECM to the nuclear envelope. VEGF/HGF-stimulated endothelial cells were treated with either (a) blebbistatin to inhibit myosin ATPase function, or (b) nocodazole to prevent microtubule assembly under 3-D culture conditions (Salpingidou et al., 2007. J. Cell Biol., 178: 897-904; Zhou et al., supra).

[2] = tested on: Human umbilical vein endothelial cells; assay: Nuclear architecture (GFP-lamin A, emerin) and nuclear pore complex (NUP153) distribution; conditions: for nuclear architecture: 2-D conditions; for nuclear shape / redistribution of nuclear pore complexes: 3-D fibrin gel
From the text: as §1
As the 3-D-specific requirements for MT-MMPs and fibronectin matrix assembly correlate with changes in endothelial cell morphology, efforts were initiated to identify mechanistic routes whereby cell shape changes impact cell function. In particular, the impact of ECM remodeling on nuclear architecture was investigated. Nuclear architecture was tracked by either transfecting cells with a GFP-tagged form of the nuclear matrix filament, lamin A, or by immunostaining for the integral nuclear membrane protein, emerin (Dahl et al., 2008. Circ. Res., 102: 1307-1318; Glynn and Glover, 2005. Hum. Mol. Genet., 14: 2959-2969; Starr, 2009. J. Cell Sci., 122: 577-586; Stewart et al., 2007. Science, 318: 1408-1412). Under 2-D conditions, endothelial cell nuclei assumed an ellipsoid shape when cultured atop fibrin gels in the absence or presence of VEGF/HGF. In marked contrast, under 3-D conditions, endothelial cells cultured within fibrin gels in the absence of VEGF/HGF unexpectedly display a distorted morphology with multiple lamin A matrix and emerin infoldings and surface irregularities. Upon addition of VEGF/HGF, however, the nuclei of fibrin-embedded endothelial cells undergo a dramatic, and 3-D-specific, remodeling to assume a more classic, ovoid morphology. Three-dimensional reconstructions of DAPI-stained nuclei confirm that nuclear architecture transitions between multi-lobed and smooth elliptical shapes in the absence or presence, respectively, of VEGF/HGF.
Nuclear matrix architecture controls the distribution of the nuclear pore complexes that regulate the trafficking of protein and RNA across the nuclear envelope (Goldman et al., 2004. Proc. Natl. Acad. Sci. USA, 101: 8963-8968; Hawryluk-Gara et al., 2005. Mol. Biol. Cell, 16: 2382-2394; Liu et al., 2007. J. Cell. Biol., 178: 785-798). As such, the localization of nuclear pores was assessed in intact cells by monitoring the localization of the component protein, NUP153. In 3-D culture, unstimulated endothelial cells accumulate NUP153-containing pore complexes at nuclear membrane invaginations. In contrast, the nuclei of VEGF/HGF-stimulated endothelial cells display a uniform distribution of pore complexes in nuclear membranes.
To determine the roles of MMP-dependent proteolysis and fibronectin matrix assembly in mediating nuclear shape and nuclear pore complex changes, fibrin-embedded endothelial cells were stimulated with VEGF/HGF in the presence of FUD or GM6001. […]

[3] = tested on: Human umbilical vein endothelial cells; assay: Nucleoli and nuclear speckle morphology (fibrillarin, SC-35 immunostaining); conditions: for fibrillarin or SC-35 distribution: 2-D culture conditions; for patterns of fibrillarin and SC-35 staining: 3-D culture, VEGF/HGF-stimulated
From the text: as §1
The morphology of nucleoli and nuclear speckles—which serve, respectively, as ribosomal RNA and pre-mRNA processing sites—was assessed by immunostaining for fibrillarin (a pre-rRNA processing protein) or SC-35 (a pre-mRNA splicing protein) (Tang et al., supra). […] Likewise, nuclear speckle morphology changed from a small number of large foci to more numerous, smaller foci.

[4] = tested on: Human umbilical vein endothelial cells; assay: RNA synthesis (transcriptional activity) in cultured endothelial cells; conditions: for transcriptional activity: 2-D culture conditions; for VEGF/HGF induction of transcriptional activity (RNA synthesis) / mRNA and rRNA synthesis inhibited: 3-D culture; for mRNA and rRNA synthesis inhibited: low dose actinomysin D used to separate rRNA synthesis, data not shown
From the text: as §1
VEGF/HGF-induced chromatin dispersion, histone acetylation, and nuclear speckle decompaction observed in 3-D culture are consistent with global activation of transcription (Lamond and Spector, 2003. Nat. Rev. Mil. Cell Biol., 4: 605-612; Tang et al., supra). As such, RNA synthesis was quantified in cultured endothelial cells. […] Under 2-D culture conditions, transcriptional activity proceeded independently of pericellular ECM remodeling and was unaffected by FUD or GM6001.

[5] = 3-D culture, VEGF/HGF-stimulated, blebbistatin or nocodazole

Molecule	growth of VEGF/HGF-stimulated endothelial cells [1]	elongation, proliferation and neovessel formation ([1]; VEGF/HGF-stimulated)	nuclear architecture [2]	TUNEL staining with formation of multi-lobed nuclei ([2]; 3-D culture)	nuclear shape ([2]; VEGF/HGF-stimulated)	redistribution of nuclear pore complexes ([2]; VEGF/HGF-stimulated)	fibrillarin or SC-35 distribution [3]	patterns of fibrillarin and SC-35 staining [3]	transcriptional activity [4]	VEGF/HGF induction of transcriptional activity (RNA synthesis) [4]	mRNA and rRNA synthesis inhibited [4] [%]	endothelial cell 3-D tubulogenesis [1, 5]	nuclear shape and nuclear pore distribution [2, 5]
CNC(=O)[C@H](Cc1c[nH]c2ccccc12)NC(=O)[C@@H](CC(=O)NO)CC(C)C [GM6001]	neither GM6001 nor FUD affect the growth	failed to elongate, proliferate or form neovessels	unaffected	does not correlate with increased TUNEL staining	locked endothelial cell nuclei into the multi-lobular conformation	completely failed to redistribute	did not affect	reversed to that resembling unstimulated endothelial cells	unaffected	attenuated significantly	~50		
Cc1ccc2c(c1)C(=O)C1(O)CCN(c3ccccc3)C1=N2 (stereo not drawn) [blebbistatin]												completely inhibit	multi-lobed nuclei with perturbations in nuclear pore distribution
FUD: 49-residue functional upstream domain of Streptococcus pyogenes F1 adhesion protein, SEQ ID NO: 10; fibronectin fibril assembly inhibitor (KDQSPLAGESGETEYITEVYGNQQNPVDIDKKLPNETGFSGNMVETEDT; Streptococcus pyogenes; Functional Upstream Domain (FUD) of F1 adhesion protein)	neither GM6001 nor FUD affect the growth	failed to elongate, proliferate or form neovessels	unaffected	does not correlate with increased TUNEL staining	locked endothelial cell nuclei into the multi-lobular conformation	completely failed to redistribute	did not affect	reversed to that resembling unstimulated endothelial cells	unaffected	attenuated significantly	~50		
